Test results reported in US20260027116A1, “Methods of Treating Chronic Graft-Versus-Host Disease Following Allogeneic Hematopoietic Stem Cell Transplantation” (Kadmon Corporation, LLC, priority 2022, published 2026).

Test system: lung function
Assay: Example 1: percent predicted FVC change from baseline
Type: in vivo, human
Conditions: mean (SD)
Method: Change From Baseline in Percent Predicted Forced Vital Capacity (FVC) at Each Specified Time Points. FVC was the total amount of air (in liters) exhaled from the lungs during the lung function test measured by spirometer which assessed the change in lung function related to the disease status. Baseline value was defined as valid and last non-missing value obtained within 28 days prior to participant receiving first study medication. EOT visit was performed within 3 days after the participant's last dose of study drug. […] Analysis was performed on mITT population. Here, ‘number analyzed’=participants with available data for each specified category. Here, ‘0’ in the number analyzed field signifies that none of the participants were available for the analysis at the specified time points.

SMILES: CC(C)NC(=O)COc1cccc(-c2nc(Nc3ccc4[nH]ncc4c3)c3ccccc3n2)c1 [Belumosudil, 2-{3-[4-(1H-indazol-5-ylamino)-2-quinazolinyl]phenoxy}-N-(propan-2-yl) acetamide]
- Change From Baseline in Percent Predicted Forced Vital Capacity (FVC) (Cohort 2: 200 mg BID, Cycle 13, Day 1): −3.3 (15.4) percent predicted FVC
- Change From Baseline in Percent Predicted Forced Vital Capacity (FVC) (Cohort 2: 200 mg BID, Cycle 14, Day 1): 2.0 (— ) percent predicted FVC
- Change From Baseline in Percent Predicted Forced Vital Capacity (FVC) (Cohort 2: 200 mg BID, Cycle 15, Day 1): −3.3 (5.5) percent predicted FVC
- Change From Baseline in Percent Predicted Forced Vital Capacity (FVC) (Cohort 2: 200 mg BID, Cycle 16, Day 1): −6.0 (19.8) percent predicted FVC
- Change From Baseline in Percent Predicted Forced Vital Capacity (FVC) (Cohort 2: 200 mg BID, Cycle 17, Day 1): −3.0 (11.8) percent predicted FVC
- Change From Baseline in Percent Predicted Forced Vital Capacity (FVC) (Cohort 2: 200 mg BID, Cycle 18, Day 1): −7.5 (9.2) percent predicted FVC
- Change From Baseline in Percent Predicted Forced Vital Capacity (FVC) (Cohort 2: 200 mg BID, Cycle 19, Day 1): −5.3 (4.7) percent predicted FVC
- Change From Baseline in Percent Predicted Forced Vital Capacity (FVC) (Cohort 2: 200 mg BID, Cycle 20, Day 1): −10.5 (2.1) percent predicted FVC
- Change From Baseline in Percent Predicted Forced Vital Capacity (FVC) (Cohort 2: 200 mg BID, Cycle 21, Day 1): −3.0 (—) percent predicted FVC
- Change From Baseline in Percent Predicted Forced Vital Capacity (FVC) (Cohort 2: 200 mg BID, Cycle 22, Day 1): −11.0 (0.0) percent predicted FVC
- Change From Baseline in Percent Predicted Forced Vital Capacity (FVC) (Cohort 2: 200 mg BID, Cycle 23, Day 1): −11.0 (2.8) percent predicted FVC
- Change From Baseline in Percent Predicted Forced Vital Capacity (FVC) (Cohort 2: 200 mg BID, Cycle 24, Day 1): −13.0 (—) percent predicted FVC
- Change From Baseline in Percent Predicted Forced Vital Capacity (FVC) (Cohort 2: 200 mg BID, Cycle 25, Day 1): −10.5 (3.5) percent predicted FVC
- Change From Baseline in Percent Predicted Forced Vital Capacity (FVC) (Cohort 2: 200 mg BID, Cycle 27, Day 1): −18.0 (12.7) percent predicted FVC
- Change From Baseline in Percent Predicted Forced Vital Capacity (FVC) (Cohort 2: 200 mg BID, Cycle 29, Day 1): −11.0 (—) percent predicted FVC
- Change From Baseline in Percent Predicted Forced Vital Capacity (FVC) (Cohort 2: 200 mg BID, Cycle 31, Day 1): −15.5 (7.8) percent predicted FVC
- Change From Baseline in Percent Predicted Forced Vital Capacity (FVC) (Cohort 2: 200 mg BID, Cycle 33, Day 1): −17.5 (7.8) percent predicted FVC
- Change From Baseline in Percent Predicted Forced Vital Capacity (FVC) (Cohort 2: 200 mg BID, Cycle 35, Day 1): −15.0 (11.3) percent predicted FVC
- Change From Baseline in Percent Predicted Forced Vital Capacity (FVC) (Cohort 2: 200 mg BID, EOT): −8.4 (9.2) percent predicted FVC
- Change From Baseline in Percent Predicted Forced Vital Capacity (FVC) (Cohort 3: 400 mg QD, Cycle 2, Day 1): −5.5 (9.9) percent predicted FVC
- Change From Baseline in Percent Predicted Forced Vital Capacity (FVC) (Cohort 3: 400 mg QD, Cycle 3, Day 1): −3.0 (6.7) percent predicted FVC
- Change From Baseline in Percent Predicted Forced Vital Capacity (FVC) (Cohort 3: 400 mg QD, Cycle 4, Day 1): −0.2 (8.6) percent predicted FVC
- Change From Baseline in Percent Predicted Forced Vital Capacity (FVC) (Cohort 3: 400 mg QD, Cycle 5, Day 1): 1.6 (6.3) percent predicted FVC
- Change From Baseline in Percent Predicted Forced Vital Capacity (FVC) (Cohort 3: 400 mg QD, Cycle 6, Day 1): 0.8 (9.5) percent predicted FVC
- Change From Baseline in Percent Predicted Forced Vital Capacity (FVC) (Cohort 3: 400 mg QD, Cycle 7, Day 1): 2.3 (9.7) percent predicted FVC
- Change From Baseline in Percent Predicted Forced Vital Capacity (FVC) (Cohort 3: 400 mg QD, Cycle 8, Day 1): 0.4 (8.9) percent predicted FVC
- Change From Baseline in Percent Predicted Forced Vital Capacity (FVC) (Cohort 3: 400 mg QD, Cycle 9, Day 1): −0.8 (9.5) percent predicted FVC
- Change From Baseline in Percent Predicted Forced Vital Capacity (FVC) (Cohort 3: 400 mg QD, Cycle 10, Day 1): 4.7 (4.9) percent predicted FVC
- Change From Baseline in Percent Predicted Forced Vital Capacity (FVC) (Cohort 3: 400 mg QD, Cycle 11, Day 1): −4.4 (12.0) percent predicted FVC
- Change From Baseline in Percent Predicted Forced Vital Capacity (FVC) (Cohort 3: 400 mg QD, Cycle 12, Day 1): 0.7 (5.8) percent predicted FVC
- Change From Baseline in Percent Predicted Forced Vital Capacity (FVC) (Cohort 3: 400 mg QD, Cycle 13, Day 1): −4.9 (9.8) percent predicted FVC
- Change From Baseline in Percent Predicted Forced Vital Capacity (FVC) (Cohort 3: 400 mg QD, Cycle 14, Day 1): −2.7 (7.1) percent predicted FVC
- Change From Baseline in Percent Predicted Forced Vital Capacity (FVC) (Cohort 3: 400 mg QD, Cycle 15, Day 1): −4.8 (11.5) percent predicted FVC
- Change From Baseline in Percent Predicted Forced Vital Capacity (FVC) (Cohort 3: 400 mg QD, Cycle 16, Day 1): −6.5 (6.5) percent predicted FVC
- Change From Baseline in Percent Predicted Forced Vital Capacity (FVC) (Cohort 3: 400 mg QD, Cycle 17, Day 1): −5.6 (12.8) percent predicted FVC
- Change From Baseline in Percent Predicted Forced Vital Capacity (FVC) (Cohort 3: 400 mg QD, Cycle 18, Day 1): 4.0 (4.0) percent predicted FVC
- Change From Baseline in Percent Predicted Forced Vital Capacity (FVC) (Cohort 3: 400 mg QD, Cycle 19, Day 1): 0.8 (5.1) percent predicted FVC
- Change From Baseline in Percent Predicted Forced Vital Capacity (FVC) (Cohort 3: 400 mg QD, Cycle 20, Day 1): −2.0 (5.6) percent predicted FVC
- Change From Baseline in Percent Predicted Forced Vital Capacity (FVC) (Cohort 3: 400 mg QD, Cycle 21, Day 1): −6.6 (17.0) percent predicted FVC
- Change From Baseline in Percent Predicted Forced Vital Capacity (FVC) (Cohort 3: 400 mg QD, Cycle 22, Day 1): −6.0 (8.5) percent predicted FVC
- Change From Baseline in Percent Predicted Forced Vital Capacity (FVC) (Cohort 3: 400 mg QD, Cycle 23, Day 1): −1.8 (10.6) percent predicted FVC
- Change From Baseline in Percent Predicted Forced Vital Capacity (FVC) (Cohort 3: 400 mg QD, Cycle 24, Day 1): −15.0 (—) percent predicted FVC
- Change From Baseline in Percent Predicted Forced Vital Capacity (FVC) (Cohort 3: 400 mg QD, Cycle 25, Day 1): −1.3 (11.7) percent predicted FVC
- Change From Baseline in Percent Predicted Forced Vital Capacity (FVC) (Cohort 3: 400 mg QD, Cycle 27, Day 1): −4.0 (21.2) percent predicted FVC
- Change From Baseline in Percent Predicted Forced Vital Capacity (FVC) (Cohort 3: 400 mg QD, Cycle 29, Day 1): 6.0 (1.4) percent predicted FVC
- Change From Baseline in Percent Predicted Forced Vital Capacity (FVC) (Cohort 3: 400 mg QD, Cycle 31, Day 1): −4.0 (—) percent predicted FVC
- Change From Baseline in Percent Predicted Forced Vital Capacity (FVC) (Cohort 3: 400 mg QD, Cycle 35, Day 1): −3.0 (—) percent predicted FVC
- Change From Baseline in Percent Predicted Forced Vital Capacity (FVC) (Cohort 3: 400 mg QD, Cycle 36, Day 1): 2.0 (—) percent predicted FVC
- Change From Baseline in Percent Predicted Forced Vital Capacity (FVC) (Cohort 3: 400 mg QD, Cycle 49, Day 1): 2.0 (—) percent predicted FVC
- Change From Baseline in Percent Predicted Forced Vital Capacity (FVC) (Cohort 3: 400 mg QD, EOT): −7.8 (14.7) percent predicted FVC
